Residues, ends and D or L forms follow the SMILES beside them.
Test system: Swine aorta endothelial cells
Assay: Measurement of activity inhibiting swine vascular endothelial cell migration
Type: cell-based
Settings: test compound at 10 µmol/L; 6 hours pre-culture, cells scraped off with razor blade, then 24 hours culture; 0.1% bovine serum albumin-containing Dulbecco's modified Eagle medium; value ± SD
Text: Measurement of activity inhibiting swine vascular endothelial cell migration: Swine aorta endothelial cells (5th to 7th generations) were suspended in the 10% fetus calf serum-containing Dulbecco's modified Eagle medium and inoculated at a cell density of 32,000 cells/cm^2 in a 6-well plate, for culturing until the cells formed a single layer over the whole bottom of the culture dish. Subsequently, the culture broth was exchanged to the 0.1% bovine serum albumin-containing Dulbecco's modified Eagle medium containing a test compound at a concentration of 10 µmol/L, followed by culturing for 6 hours. Then, a part of the cells on the bottom of the culture dish was scraped off using a razor blade. Subsequently, the culture broth was exchanged to the 0.1% bovine serum albumin-containing Dulbecco's modified Eagle medium containing a test compound in a concentration of 10 µmol/L, followed by culturing for 24 hours. After immobilizing the cells, the number of the cells which had migrated on the bottom portion of the culture dish, where a part of the cells had been scraped off, was counted. The inhibition ratio of cell migration was calculated by the following equation. Inhibition ratio of cell migration (%) = (1 - the number of cells which had migrated in the presence of the test compound/the number of cells which had migrated in the absence of the test compound) × 100 [formula]

| SMILES | Inhibition ratio of cell migration (%) ± SD [%] |
| --- | --- |
| CC[C@H](C)[C@H](NC(=O)[C@H](CCCNC(=N)N)NC(=O)[C@H](C)NC(=O)[C@H](CCCCN)NC(=O)[C@H](CCCCN)NC(=O)[C@H](CCCNC(=N)N)NC(=O)[C@H](CCC(N)=O)NC(=O)[C@@H](NC(=O)[C@@H](NC(=O)[C@H](CCC(=O)O)NC(=O)[C@@H]1CCCN1C(=O)[C@H](C)NC(=O)[C@@H]1CCCN1)[C@@H](C)O)C(C)C)C(=O)N[C@@H](CCCNC(=N)N)C(=O)N[C@@H](CCCCN)C(N)=O [Compound 10, H-Pro-Ala-Pro-Glu-Thr-Val-Gln-Arg-Lys-Lys-Ala-Arg-Ile-Arg-Lys-NH2] (H-PAPETVQRKKARIRK-NH2) | 20.6±1.9 |
| CSCC[C@H](NC(=O)[C@H](CCCNC(=N)N)NC(=O)[C@H](CCCCN)NC(=O)CNC(=O)[C@H](CCCCN)NC(=O)[C@@H](N)CC(=O)O)C(=O)N[C@@H](CCCNC(=N)N)C(=O)N[C@@H](CCC(N)=O)C(=O)N[C@@H](CCCNC(=N)N)C(=O)N[C@@H](CCSC)C(=O)N[C@@H](CC(C)C)C(=O)N[C@@H](CCCCN)C(=O)N[C@@H](C)C(=O)N[C@@H](CCC(N)=O)C(=O)N[C@@H](CC(C)C)C(N)=O [Compound 7, H-Asp-Lys-Gly-Lys-Arg-Met-Arg-Gln-Arg-Met-Leu-Lys-Ala-Gln-Leu-NH2] (H-DKGKRMRQRMLKAQL-NH2) | 9.3±1.6 |
| CC(C)C[C@H](NC(=O)[C@H](CO)NC(=O)[C@@H](N)CC(C)C)C(=O)N[C@@H](Cc1c[nH]c2ccccc12)C(=O)N[C@@H](CO)C(=O)N[C@@H](CCC(=O)O)C(=O)N[C@@H](Cc1c[nH]c2ccccc12)C(=O)N[C@@H](CO)C(=O)N[C@@H](CC(=O)O)C(=O)N[C@@H](C)C(=O)N[C@@H](CO)C(=O)N[C@H](C(=O)N[C@H](C(=O)N[C@@H](C)C(=O)NCC(N)=O)[C@@H](C)O)C(C)C [Compound 2, H-Leu-Ser-Leu-Trp-Ser-Glu-Trp-Ser-Asp-Ala-Ser-Val-Thr-Ala-Gly-NH2] (H-LSLWSEWSDASVTAG-NH2) | 41.5±2.1 |
| CSCC[C@H](N)C(=O)N[C@@H](CCCNC(=N)N)C(=O)N1CCC[C@H]1C(=O)N[C@@H](Cc1c[nH]c2ccccc12)C(=O)N[C@H](C(=O)N[C@@H](C)C(=O)N[C@@H](Cc1c[nH]c2ccccc12)C(=O)N[C@@H](CO)C(=O)N[C@@H](CCC(=O)O)C(=O)N[C@@H](C)C(=O)N[C@H](C(=O)N[C@@H](CCCCN)C(=O)N[C@@H](CC(C)C)C(=O)N[C@@H](C)C(=O)NCC(N)=O)[C@@H](C)O)[C@@H](C)O [Compound 6, H-Met-Arg-Pro-Trp-Thr-Ala-Trp-Ser-Glu-Ala-Thr-Lys-Leu-Ala-Gly-NH2] (H-MRPWTAWSEATKLAG-NH2) | 5.7±8.0 |
| CSCC[C@H](NC(=O)[C@H](Cc1ccc(O)cc1)NC(=O)[C@@H](N)CCCNC(=N)N)C(=O)N[C@H](C(=O)N[C@H](C(=O)N[C@@H](CCCCN)C(=O)N[C@@H](CCCCN)C(=O)N[C@@H](CCCNC(=N)N)C(=O)N[C@@H](Cc1ccccc1)C(=O)N[C@@H](CCCCN)C(=O)N[C@@H](CO)C(=O)N[C@@H](CO)C(=O)N[C@@H](CCC(N)=O)C(=O)N[C@@H](Cc1ccccc1)C(=O)N[C@H](C(N)=O)[C@@H](C)O)C(C)C)[C@@H](C)O [Compound 11, H-Arg-Tyr-Met-Thr-Val-Lys-Lys-Arg-Phe-Lys-Ser-Ser-Gln-Phe-Thr-NH2] (H-RYMTVKKRFKSSQFT-NH2) | 12.2±10.7 |
| CC[C@H](C)[C@H](NC(=O)[C@H](CCSC)NC(=O)[C@H](CCCNC(=N)N)NC(=O)[C@@H](NC(=O)[C@H](CCCNC(=N)N)NC(=O)[C@@H](NC(=O)[C@@H](NC(=O)[C@H](Cc1c[nH]cn1)NC(=O)CNC(=O)[C@H](CCCCN)NC(=O)CN)C(C)C)[C@@H](C)CC)[C@@H](C)O)C(=O)N[C@@H](CCC(N)=O)C(=O)N[C@@H](CCSC)C(=O)N[C@@H](CCC(=O)O)C(N)=O [Compound 9, H-Gly-Lys-Gly-His-Val-Ile-Arg-Thr-Arg-Met-Ile-Gln-Met-Glu-NH2] (H-GKGHVIRTRMIQME-NH2) | 3.9±1.6 |
| CC(C)C[C@H](N)C(=O)N[C@H](C(=O)N[C@@H](CCC(=O)O)C(=O)N[C@@H](Cc1c[nH]c2ccccc12)C(=O)N[C@@H](CO)C(=O)N[C@@H](CCC(N)=O)C(=O)N[C@@H](Cc1c[nH]c2ccccc12)C(=O)N[C@@H](CO)C(=O)N[C@@H](CCC(=O)O)C(=O)N[C@@H](C)C(=O)N[C@@H](CC(N)=O)C(=O)N[C@@H](CCCCN)C(=O)N[C@@H](CO)C(=O)N[C@@H](C)C(=O)NCC(N)=O)[C@@H](C)O [Compound 5, H-Leu-Thr-Glu-Trp-Ser-Gln-Trp-Ser-Glu-Ala-Asn-Lys-Ser-Ala-Gly-NH2] (H-LTEWSQWSEANKSAG-NH2) | 10.8±6.0 |
| C[C@H](NC(=O)[C@H](C)NC(=O)[C@H](CO)NC(=O)[C@H](Cc1c[nH]c2ccccc12)NC(=O)[C@@H]1CCCN1C(=O)[C@H](CO)NC(=O)[C@H](Cc1c[nH]c2ccccc12)NC(=O)[C@H](CC(N)=O)NC(=O)[C@H](CO)NC(=O)[C@@H](N)Cc1ccc(O)cc1)C(=O)N[C@@H](CO)C(=O)N[C@@H](CO)C(=O)N[C@@H](CO)C(=O)N[C@H](C(=O)N[C@@H](C)C(=O)N[C@@H](CC(=O)O)C(N)=O)[C@@H](C)O [Compound 3, H-Tyr-Ser-Asn-Trp-Ser-Pro-Trp-Ser-Ala-Ala-Ser-Ser-Ser-Thr-Ala-Asp-NH2] (H-YSNWSPWSAASSSTAD-NH2) | 12.3±10.0 |
| CSCC[C@H](N)C(=O)N[C@H](C(=O)N[C@@H](CCC(=O)O)C(=O)N[C@@H](Cc1c[nH]c2ccccc12)C(=O)NCC(=O)N[C@@H](CCC(=O)O)C(=O)N[C@@H](Cc1c[nH]c2ccccc12)C(=O)N[C@@H](CC(=O)O)C(=O)N[C@@H](CCC(=O)O)C(=O)N[C@@H](C)C(=O)N[C@@H](CO)C(=O)N[C@@H](C)C(=O)N[C@H](C(=O)N[C@@H](C)C(=O)NCC(N)=O)[C@@H](C)O)[C@@H](C)O [Compound 4, H-Met-Thr-Glu-Trp-Gly-Glu-Trp-Asp-Glu-Ala-Ser-Ala-Thr-Ala-Gly-NH2] (H-MTEWGEWDEASATAG-NH2) | 7.4±13.2 |
| CC[C@H](C)[C@H](NC(=O)[C@H](CO)NC(=O)[C@H](C)NC(=O)[C@@H]1CCCN1C(=O)[C@H](CO)NC(=O)[C@H](Cc1c[nH]c2ccccc12)NC(=O)[C@@H](NC(=O)[C@@H](NC(=O)[C@H](Cc1c[nH]c2ccccc12)NC(=O)[C@H](CCC(=O)O)NC(=O)[C@H](CO)NC(=O)[C@@H](N)CCSC)[C@@H](C)CC)[C@@H](C)O)C(=O)N[C@@H](CO)C(=O)N[C@@H](C)C(=O)NCC(N)=O [Compound 1, H-Met-Ser-Glu-Trp-Ile-Thr-Trp-Ser-Pro-Ala-Ser-Ile-Ser-Ala-Gly-NH2] (H-MSEWITWSPASISAG-NH2) | 24.5±4.9 |
| CC[C@H](C)[C@H](NC(=O)[C@H](CCSC)NC(=O)[C@H](CCCNC(=N)N)NC(=O)[C@H](Cc1c[nH]cn1)NC(=O)[C@H](CCCNC(=N)N)NC(=O)[C@H](CCCCN)NC(=O)[C@H](CCCCN)NC(=O)[C@@H](N)CCSC)C(=O)N[C@@H](CCCCN)C(=O)N[C@@H](CCSC)C(=O)N[C@@H](CC(N)=O)C(=O)N1CCC[C@H]1C(=O)N[C@@H](C)C(=O)N[C@@H](CC(=O)O)C(=O)NCC(N)=O [Compound 8, H-Met-Lys-Lys-Arg-His-Arg-Met-Ile-Lys-Met-Asn-Pro-Ala-Asp-Gly-NH2] (H-MKKRHRMIKMNPADG-NH2) | 7.2±1.2 |

— patent publication EP1152011A1, “PEPTIDES INHIBITING VASCULAR ENDOTHELIAL CELL MIGRATION” (KYOWA HAKKO KOGYO CO., LTD., priority 1999, dated 2000)
